Experimental data: article PMC12527977, “Discovery of a novel tetrapeptide as glucose homeostasis modulator with bifunctionalities of targeting DPP‐IV and microbiota” (iMeta, 2025)
Where two headings read alike, the source gives them in different places. Where a SMILES comes first, the peptide text is derived from it.

Columns and labels:
[1] = Blood pharmacokinetics of VAMP, 10 mg/kg i.v. or p.o.; format: in vivo; conditions: mouse, po
Description: FIGURE 2 VAMP inhibits intestinal dipeptidyl peptidase IV (DPP‐IV) and increases the abundance of A. muciniphila. (A) The experimental scheme for (B–O) is shown, n = 6 mice/group. HFD‐fed mice were treated with PBS (vehicle group) or VAMP (50 mg/kg, VAMP group) for 8 weeks by oral gavage. (B) The body weight change, (C) FBG level, (D) intestinal active GLP‐1 levels, (E) plasma active GLP‐1 levels, (F) OGTT curve, (G) AUC of the OGTT, and (H) HOMA‐IR index were evaluated. (I) Intestinal permeability was measured by plasma fluorescence intensity after gavage with FITC‐dextran 4000. (J) The plasma levels of LPS, (K) TNF‐α, and (L) IL‐1β were determined. (M) Carnoy‐fixed colonic tissue sections were stained with Alcian blue/periodic acid‐Schiff. Scale bars, 100 µm. […] (O) The relative expression of Tjp1, Ocln, Cldn1, Cldn3, Cldn4, Cldn5, and Muc2 mRNAs in colonic tissue was determined. (P) The blood pharmacokinetics of 10 mg/kg VAMP administered by injection (i.v.) or gavage (p.o.) over time were evaluated. (Q) The tissue distribution of VAMP at the time of peak plasma concentration (30 min) after the administration of 10 mg/kg VAMP by gavage was determined (n = 4). […] (U) The change in bacterial abundance at the species level after VAMP treatment was determined via random forest analysis. […]
(§1) We first determined the VAMP metabolic kinetics in model mice.

[2] = test system: porcine pepsase and trypsase; experiment: Simulated digestive stability of peptides (pepsase then trypsase); format: in vitro ADME; conditions: in words; 5.0 mg/mL peptide, pepsase 5000 U/mL pH 3.0 37 °C 2 h, then trypsase 100 U/mL pH 7.0 37 °C 2 h, LC-MS
Description: The in vitro digestibility of the peptides was determined according to the method described by Ohanenye et al. with some modifications. Briefly, 5.0 mg/mL peptides were mixed with 5000 U/mL porcine pepsase (pH 3.0). The mixture was incubated with continuous shaking in a water bath at 37 ℃ for 2 h. Then, the mixture was adjusted to pH 7.0, and a final concentration of 100 U/mL trypsase was added, followed by continuous shaking at 37 ℃ for another 2 h. After digestion, the enzyme was inactivated, and the mixture was incubated in a water bath (100 ℃) for 20 min. Subsequently, the mixture was centrifuged at 6000 rpm for 20 min, after which the supernatants were collected for further analysis. The concentrations of peptides in the digestions and TPH were determined via AB SCIEX QTrap 6600+ (AB Sciex, Framingham, Massachusetts).

[3] = test system: faeces-derived bacterial community; experiment: in vitro; format: in vitro ADME
Excerpt: (§2) The levels of VAMP at different time points were quantified by targeted metabolomics.

in vitro = in vitro ADME; conditions: cells or culture medium, VAMP (%) remaining
Excerpt: as §2

DPP-IV [4] = target: T1, DPP-IV (Homo sapiens, UniProt P27487); experiment: Surface plasmon resonance (Biacore 8K, CM5 chip, 25 °C); format: binding; design: purchased QiZheng Biotech (Shanghai, China) IBDPP0901; conditions: SPR, Table S3; read-out: KD values
[5] = Tissue distribution of VAMP 30 min after 10 mg/kg by gavage; format: in vivo, mouse; conditions: for Tissue distribution, relative proportion in Heart / Tissue distribution, relative proportion in Intestinal content / Tissue distribution, relative proportion in Intestinal tissue / Tissue distribution, relative proportion in Kidney / Tissue distribution, relative proportion in Liver / Tissue distribution, relative proportion in Lung / Tissue distribution, relative proportion in Spleen: 10 mg/kg by gavage, 30 min
Description: FIGURE 2 VAMP inhibits intestinal dipeptidyl peptidase IV (DPP‐IV) and increases the abundance of A. muciniphila. (A) The experimental scheme for (B–O) is shown, n = 6 mice/group. HFD‐fed mice were treated with PBS (vehicle group) or VAMP (50 mg/kg, VAMP group) for 8 weeks by oral gavage. (B) The body weight change, (C) FBG level, (D) intestinal active GLP‐1 levels, (E) plasma active GLP‐1 levels, (F) OGTT curve, (G) AUC of the OGTT, and (H) HOMA‐IR index were evaluated. (I) Intestinal permeability was measured by plasma fluorescence intensity after gavage with FITC‐dextran 4000. (J) The plasma levels of LPS, (K) TNF‐α, and (L) IL‐1β were determined. (M) Carnoy‐fixed colonic tissue sections were stained with Alcian blue/periodic acid‐Schiff. Scale bars, 100 µm. (N) Blinded colonic mucus layer measurements were made from Alcian blue‐stained sections. (O) The relative expression of Tjp1, Ocln, Cldn1, Cldn3, Cldn4, Cldn5, and Muc2 mRNAs in colonic tissue was determined. (P) The blood pharmacokinetics of 10 mg/kg VAMP administered by injection (i.v.) or gavage (p.o.) over time were evaluated. (Q) The tissue distribution of VAMP at the time of peak plasma concentration (30 min) after the administration of 10 mg/kg VAMP by gavage was determined (n = 4). (R) PCoA was performed using the Bray‒Curtis distance. (S, T) Taxonomic cladograms were generated by LEfSe analysis. The blue color indicates enriched taxa in the VAMP group, and the red color indicates enriched taxa in the vehicle group. The size of each circle is proportional to the taxon's abundance. (U) The change in bacterial abundance at the species level after VAMP treatment was determined via random forest analysis. (V) Growth curve of A. muciniphila cultured in BHI media supplemented with VAMP (50 μM) or PBS (Vehicle) and then grown anaerobically. (W−Y) RNA‐seq analysis of the A. muciniphila cultured in BHI media supplemented with VAMP (50 μM) or PBS control (Vehicle) was performed (n = 3). (W) PCA of transcriptome. (X) Biofunction changes of A. muciniphila by VAMP treatment via KEGG enrichment analysis. (Y) Volcano plot of transcriptome sequencing of Vehicle and VAMP groups. (Z) Levels of peptidoglycan by VAMP treatment. *p < 0.05 and **p < 0.01 versus the vehicle group. AUC, area under the curve; BHI, brain heart infusion; FBG, fasting blood glucose; GLP‐1, glucagon‐like peptide‐1; HOMA‐IR, homeostatic model assessment of insulin resistance; IL‐1β, interleukin‐1β; LEfSe, linear discriminant analysis effect size; LPS, lipopolysaccharide; OGTT, oral glucose tolerance test; PCoA, principal coordinate analysis; TNF‐α, tumor necrosis factor α.
as §1

DPP-IV [6] = target: T1, DPP-IV; experiment: DPP-IV inhibition in iPSC-induced intestinal organoids (supernatant, DPP-IV-Glo kit); format: cell-based; design: endogenous in cells; host or cells: iPSC-induced intestinal organoids; conditions: Fig 1R, 24 h, read-out: Inhibitory effect on DPP-IV; for inhibition at 100 µg/mL: VAMP 100 μg/mL; for inhibition at 200 µg/mL: VAMP 200 μg/mL; for inhibition at 500 µg/mL: VAMP 500 μg/mL
Excerpt: iPSC-induced intestinal organoids were established according to the manufacturer’s instructions (STEMdiff^TM Intestinal Organoid kit).
Target sequence in this assay (P27487 whole entry): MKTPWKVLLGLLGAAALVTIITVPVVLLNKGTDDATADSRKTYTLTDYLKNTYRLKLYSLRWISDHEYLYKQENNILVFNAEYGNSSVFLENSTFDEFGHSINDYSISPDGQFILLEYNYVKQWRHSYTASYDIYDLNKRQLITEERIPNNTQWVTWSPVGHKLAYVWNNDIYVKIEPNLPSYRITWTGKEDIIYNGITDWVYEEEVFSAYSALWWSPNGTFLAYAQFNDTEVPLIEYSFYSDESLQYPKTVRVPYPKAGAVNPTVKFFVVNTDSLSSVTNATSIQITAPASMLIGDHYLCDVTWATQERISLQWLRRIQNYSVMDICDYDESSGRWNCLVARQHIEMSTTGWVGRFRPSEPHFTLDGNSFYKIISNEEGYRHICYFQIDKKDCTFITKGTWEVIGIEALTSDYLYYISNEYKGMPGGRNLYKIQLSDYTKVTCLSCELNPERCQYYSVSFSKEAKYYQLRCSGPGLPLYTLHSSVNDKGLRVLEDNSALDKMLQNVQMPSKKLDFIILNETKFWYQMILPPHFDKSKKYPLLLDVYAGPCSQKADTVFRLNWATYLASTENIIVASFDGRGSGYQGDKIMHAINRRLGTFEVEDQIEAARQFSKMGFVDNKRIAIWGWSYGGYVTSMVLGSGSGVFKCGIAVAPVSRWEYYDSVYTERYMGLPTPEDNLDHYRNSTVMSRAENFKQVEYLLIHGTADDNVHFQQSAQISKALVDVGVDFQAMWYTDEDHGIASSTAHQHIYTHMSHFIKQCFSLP

For CSCC[C@H](NC(=O)[C@H](C)NC(=O)[C@@H](N)C(C)C)C(=O)N1CCC[C@H]1C(=O)O [VAMP] (H-VAMP-OH), the bioavailability ([1]; blood, mice, 10 mg/kg p.o. vs i.v., printed in picture Fig 2P) was 10.5%, the Tmax ([1]; plasma, 10 mg/kg by gavage, read-out: Time of peak plasma concentration (converted)) was 30 min and the “Resistance to simulated gastric pepsase and trypsase digestion” value [2] was “readily resistant”. For the same compound, the “Degradation of VAMP in faeces-derived microbial community culture” value [3] was “degraded by gut microbiota”, the remaining at 3 h, 100 μM (in vitro; 3 h) was 98.5% and the remaining at 6 h, 100 μM (in vitro; 6 h) was 84.6%. It also gave a remaining at 12 h, 100 μM (in vitro; 12 h) of 51.7%, a remaining at 36 h, 100 μM (in vitro; 36 h) of 2.1% and a remaining at 48 h, 100 μM (in vitro; 48 h) of 0%. For the same compound, the Kd (DPP-IV [4]) was 6.89 µM, the “Tissue distribution, relative proportion in Heart” value ([5]; animal 1) was 0.7129% and the “Tissue distribution, relative proportion in Intestinal content” value ([5]; animal 1) was 72.8435%. The “Tissue distribution, relative proportion in Intestinal tissue” value ([5]; animal 1) was 17.3859%, the “Tissue distribution, relative proportion in Kidney” value ([5]; animal 1) was 1.873% and the “Tissue distribution, relative proportion in Liver” value ([5]; animal 1) was 2.36%. For the same compound, the “Tissue distribution, relative proportion in Lung” value ([5]; animal 1) was 1.2931%, the “Tissue distribution, relative proportion in Spleen” value ([5]; animal 1) was 3.531% and the “Tissue distribution, relative proportion in Heart” value ([5]; animal 2) was 0.3824%. For the same compound, the “Tissue distribution, relative proportion in Intestinal content” value ([5]; animal 2) was 73.0882%, the “Tissue distribution, relative proportion in Intestinal tissue” value ([5]; animal 2) was 19.9706% and the “Tissue distribution, relative proportion in Kidney” value ([5]; animal 2) was 1.279%. For the same compound, the “Tissue distribution, relative proportion in Liver” value ([5]; animal 2) was 2.103%, the “Tissue distribution, relative proportion in Lung” value ([5]; animal 2) was 0.9118% and the “Tissue distribution, relative proportion in Spleen” value ([5]; animal 2) was 2.265%. The “Tissue distribution, relative proportion in Heart” value ([5]; animal 3) was 0.4562%, the “Tissue distribution, relative proportion in Intestinal content” value ([5]; animal 3) was 74.7307% and the “Tissue distribution, relative proportion in Intestinal tissue” value ([5]; animal 3) was 19.1872%. The “Tissue distribution, relative proportion in Kidney” value ([5]; animal 3) was 0.6681%, the “Tissue distribution, relative proportion in Liver” value ([5]; animal 3) was 1.699% and the “Tissue distribution, relative proportion in Lung” value ([5]; animal 3) was 0.5703%. For the same compound, the “Tissue distribution, relative proportion in Spleen” value ([5]; animal 3) was 2.689%, the “Tissue distribution, relative proportion in Heart” value ([5]; animal 4) was 0.5116% and the “Tissue distribution, relative proportion in Intestinal content” value ([5]; animal 4) was 76.0476%. The “Tissue distribution, relative proportion in Intestinal tissue” value ([5]; animal 4) was 16.2858%, the “Tissue distribution, relative proportion in Kidney” value ([5]; animal 4) was 1.305% and the “Tissue distribution, relative proportion in Liver” value ([5]; animal 4) was 2.163%. The “Tissue distribution, relative proportion in Lung” value ([5]; animal 4) was 0.882%, the “Tissue distribution, relative proportion in Spleen” value ([5]; animal 4) was 2.805% and the “VAMP remaining in the intestinal content at the time of peak plasma concentration” value ([5]; after gavage) was 74.18%. The inhibition at 100 µg/mL (DPP-IV [6]; replicate 1) was 72.5%, the inhibition at 100 µg/mL (DPP-IV [6]; replicate 2) was 69.3% and the inhibition at 100 µg/mL (DPP-IV [6]; replicate 3) was 50.4%. The inhibition at 200 µg/mL (DPP-IV [6]; replicate 1) was 82.5%, the inhibition at 200 µg/mL (DPP-IV [6]; replicate 2) was 80.3% and the inhibition at 200 µg/mL (DPP-IV [6]; replicate 3) was 84.2%. It also gave an inhibition at 500 µg/mL (DPP-IV [6]; replicate 1) of 92.1%, an inhibition at 500 µg/mL (DPP-IV [6]; replicate 2) of 89.1% and an inhibition at 500 µg/mL (DPP-IV [6]; replicate 3) of 84.8%.
